Reference: the supplement of paper PMC10307832

Columns and labels:
Experiment in all cases: relative viability (nuclei count vs DMSO), 5 days (fraction); higher = more cells survive
[1] = test system: ChaGo-K-1
How it was run: (§1)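 Medians of duplicate plates are given as relative viability. That measure is the nuclei count in treated wells divided by the count in vehicle wells. Counts were taken on 4× images of lung cancer cell lines in 1536-well plates, 5 days after pin-tool dosing the day after seeding with one drug alone or a fixed anchor-drug dose plus five library-drug doses (not always all listed) in √10 steps.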

[2] = test system: EKVX
How it was run: as §1

[3] = test system: EMC-BAC-2
How it was run: as §1

[4] = test system: EPLC-272H
How it was run: as §1

[5] = test system: HCC-78
How it was run: as §1

[6] = test system: HCC-827
How it was run: as §1

[7] = test system: LCLC-103H
How it was run: as §1

[8] = test system: LK-2
How it was run: as §1

[9] = test system: LU99A
How it was run: as §1

[10] = test system: LXF-289
How it was run: as §1

[11] = test system: NCI-H1563
How it was run: as §1

[12] = test system: NCI-H1666
How it was run: as §1

[13] = test system: NCI-H1975
How it was run: as §1

[14] = test system: NCI-H2126
How it was run: as §1

[15] = test system: NCI-H23
How it was run: as §1

[16] = test system: NCI-H2405
How it was run: as §1

[17] = test system: NCI-H322M
How it was run: as §1

[18] = test system: PC-14
How it was run: as §1

[19] = test system: RERF-LC-KJ
How it was run: as §1

[20] = test system: SK-LU-1
How it was run: as §1

[21] = test system: SW 1573
How it was run: as §1

O=c1cc(-c2cccc3c2Sc2ccccc2S3)oc(N2CCOCC2)c1 + C[C@@H](Oc1cc(-c2cnn(C3CCNCC3)c2)cnc1N)c1c(Cl)ccc(F)c1Cl [Crizotinib] (partner 1 µM)
relative viability ([1]; first compound 0.08 µM): 1.09 | relative viability ([1]; first compound 0.253 µM): 1.35 | relative viability ([1]; first compound 0.8 µM): 1.25 | relative viability ([1]; first compound 8 µM): 1.22 | relative viability ([2]; first compound 0.08 µM): 0.896 | relative viability ([2]; first compound 0.253 µM): 1.1 | relative viability ([2]; first compound 0.8 µM): 0.971 | relative viability ([2]; first compound 2.53 µM): 1.04 | relative viability ([2]; first compound 8 µM): 1.04 | relative viability ([3]; first compound 0.08 µM): 0.856 | relative viability ([3]; first compound 0.253 µM): 0.753 | relative viability ([3]; first compound 0.8 µM): 0.841 | relative viability ([3]; first compound 2.53 µM): 0.784 | relative viability ([3]; first compound 8 µM): 0.817 | relative viability ([4]; first compound 0.08 µM): 0.786 | relative viability ([4]; first compound 0.253 µM): 0.891 | relative viability ([4]; first compound 0.8 µM): 1.19 | relative viability ([4]; first compound 2.53 µM): 0.963 | relative viability ([4]; first compound 8 µM): 1.08 | relative viability ([5]; first compound 0.08 µM): 0.286 | relative viability ([5]; first compound 0.253 µM): 0.34 | relative viability ([5]; first compound 0.8 µM): 0.291 | relative viability ([5]; first compound 2.53 µM): 0.342 | relative viability ([5]; first compound 8 µM): 0.34 | relative viability ([6]; first compound 0.08 µM): 0.943 | relative viability ([6]; first compound 0.253 µM): 0.921 | relative viability ([6]; first compound 0.8 µM): 0.997 | relative viability ([6]; first compound 2.53 µM): 0.8 | relative viability ([6]; first compound 8 µM): 0.967 | relative viability ([7]; first compound 0.08 µM): 1.06 | relative viability ([7]; first compound 0.253 µM): 1.07 | relative viability ([7]; first compound 0.8 µM): 1.06 | relative viability ([7]; first compound 2.53 µM): 1.05 | relative viability ([7]; first compound 8 µM): 1.05 | relative viability ([8]; first compound 0.08 µM): 0.196 | relative viability ([8]; first compound 0.253 µM): 0.224 | relative viability ([8]; first compound 0.8 µM): 0.194 | relative viability ([8]; first compound 2.53 µM): 0.231 | relative viability ([8]; first compound 8 µM): 0.208 | relative viability ([9]; first compound 0.08 µM): 0.552 | relative viability ([9]; first compound 0.253 µM): 0.574 | relative viability ([9]; first compound 0.8 µM): 0.932 | relative viability ([9]; first compound 2.53 µM): 0.596 | relative viability ([9]; first compound 8 µM): 0.701 | relative viability ([10]; first compound 0.08 µM): 0.839 | relative viability ([10]; first compound 0.253 µM): 0.877 | relative viability ([10]; first compound 0.8 µM): 0.849 | relative viability ([10]; first compound 2.53 µM): 0.8 | relative viability ([10]; first compound 8 µM): 0.845 | relative viability ([11]; first compound 0.08 µM): 0.93 | relative viability ([11]; first compound 0.253 µM): 0.758 | relative viability ([11]; first compound 0.8 µM): 0.792 | relative viability ([11]; first compound 2.53 µM): 0.804 | relative viability ([11]; first compound 8 µM): 0.887 | relative viability ([12]; first compound 0.08 µM): 0.911 | relative viability ([12]; first compound 0.253 µM): 1.04 | relative viability ([12]; first compound 0.8 µM): 0.922 | relative viability ([12]; first compound 2.53 µM): 0.916 | relative viability ([12]; first compound 8 µM): 0.857 | relative viability ([13]; first compound 0.08 µM): 1.01 | relative viability ([13]; first compound 0.253 µM): 1.02 | relative viability ([13]; first compound 0.8 µM): 0.922 | relative viability ([13]; first compound 2.53 µM): 0.837 | relative viability ([13]; first compound 8 µM): 0.98 | relative viability ([14]; first compound 0.08 µM): 1.02 | relative viability ([14]; first compound 0.253 µM): 1.09 | relative viability ([14]; first compound 0.8 µM): 1.17 | relative viability ([14]; first compound 2.53 µM): 0.994 | relative viability ([14]; first compound 8 µM): 1.04 | relative viability ([15]; first compound 0.08 µM): 0.442 | relative viability ([15]; first compound 0.253 µM): 0.564 | relative viability ([15]; first compound 0.8 µM): 0.626 | relative viability ([15]; first compound 2.53 µM): 0.572 | relative viability ([15]; first compound 8 µM): 0.522 | relative viability ([16]; first compound 0.08 µM): 0.831 | relative viability ([16]; first compound 0.253 µM): 0.887 | relative viability ([16]; first compound 0.8 µM): 0.832 | relative viability ([16]; first compound 2.53 µM): 0.759 | relative viability ([16]; first compound 8 µM): 0.853 | relative viability ([17]; first compound 0.08 µM): 0.885 | relative viability ([17]; first compound 0.253 µM): 0.901 | relative viability ([17]; first compound 0.8 µM): 1.04 | relative viability ([17]; first compound 2.53 µM): 0.937 | relative viability ([17]; first compound 8 µM): 1.08 | relative viability ([18]; first compound 0.08 µM): 0.979 | relative viability ([18]; first compound 0.253 µM): 1.13 | relative viability ([18]; first compound 0.8 µM): 0.945 | relative viability ([18]; first compound 2.53 µM): 0.899 | relative viability ([18]; first compound 8 µM): 0.868 | relative viability ([19]; first compound 0.08 µM): 0.823 | relative viability ([19]; first compound 0.253 µM): 0.922 | relative viability ([19]; first compound 0.8 µM): 0.871 | relative viability ([19]; first compound 2.53 µM): 0.948 | relative viability ([19]; first compound 8 µM): 1.05 | relative viability ([20]; first compound 0.08 µM): 0.812 | relative viability ([20]; first compound 0.253 µM): 1.04 | relative viability ([20]; first compound 0.8 µM): 1.14 | relative viability ([20]; first compound 2.53 µM): 0.905 | relative viability ([20]; first compound 8 µM): 0.849 | relative viability ([21]; first compound 0.08 µM): 0.76 | relative viability ([21]; first compound 0.253 µM): 0.852 | relative viability ([21]; first compound 0.8 µM): 0.886 | relative viability ([21]; first compound 2.53 µM): 0.794 | relative viability ([21]; first compound 8 µM): 0.849

COc1nc(C)cnc1NS(=O)(=O)c1cccnc1-c1ccc(-c2nnco2)cc1 [Zibotentan] + CS(=O)(=O)N1CCN(Cc2cc3nc(-c4cccc5[nH]ncc45)nc(N4CCOCC4)c3s2)CC1 [Pictilisib] (partner 1 µM)
relative viability ([1]; first compound 0.08 µM): 0.653 | relative viability ([1]; first compound 0.8 µM): 0.426 | relative viability ([1]; first compound 2.53 µM): 0.691 | relative viability ([2]; first compound 0.08 µM): 0.465 | relative viability ([2]; first compound 0.253 µM): 0.451 | relative viability ([2]; first compound 0.8 µM): 0.439 | relative viability ([2]; first compound 2.53 µM): 0.453 | relative viability ([3]; first compound 0.08 µM): 0.568 | relative viability ([3]; first compound 0.253 µM): 0.529 | relative viability ([3]; first compound 0.8 µM): 0.56 | relative viability ([3]; first compound 2.53 µM): 0.56 | relative viability ([4]; first compound 0.08 µM): 0.363 | relative viability ([4]; first compound 0.253 µM): 0.289 | relative viability ([4]; first compound 0.8 µM): 0.239 | relative viability ([4]; first compound 2.53 µM): 0.297 | relative viability ([5]; first compound 0.08 µM): 0.0937 | relative viability ([5]; first compound 0.253 µM): 0.23 | relative viability ([5]; first compound 0.8 µM): 0.198 | relative viability ([5]; first compound 2.53 µM): 0.195 | relative viability ([6]; first compound 0.08 µM): 0.95 | relative viability ([6]; first compound 0.253 µM): 0.846 | relative viability ([6]; first compound 0.8 µM): 0.964 | relative viability ([6]; first compound 2.53 µM): 0.956 | relative viability ([7]; first compound 0.08 µM): 0.681 | relative viability ([7]; first compound 0.253 µM): 0.558 | relative viability ([7]; first compound 0.8 µM): 0.55 | relative viability ([7]; first compound 2.53 µM): 0.608 | relative viability ([8]; first compound 0.08 µM): 0.542 | relative viability ([8]; first compound 0.253 µM): 0.471 | relative viability ([8]; first compound 0.8 µM): 0.55 | relative viability ([8]; first compound 2.53 µM): 0.603 | relative viability ([9]; first compound 0.08 µM): 0.362 | relative viability ([9]; first compound 0.253 µM): 0.314 | relative viability ([9]; first compound 0.8 µM): 0.343 | relative viability ([9]; first compound 2.53 µM): 0.371 | relative viability ([10]; first compound 0.08 µM): 0.774 | relative viability ([10]; first compound 0.253 µM): 0.739 | relative viability ([10]; first compound 0.8 µM): 0.814 | relative viability ([10]; first compound 2.53 µM): 0.783 | relative viability ([11]; first compound 0.08 µM): 0.635 | relative viability ([11]; first compound 0.253 µM): 0.594 | relative viability ([11]; first compound 0.8 µM): 0.652 | relative viability ([11]; first compound 2.53 µM): 0.639 | relative viability ([12]; first compound 0.08 µM): 0.553 | relative viability ([12]; first compound 0.253 µM): 0.361 | relative viability ([12]; first compound 0.8 µM): 0.467 | relative viability ([12]; first compound 2.53 µM): 0.429 | relative viability ([13]; first compound 0.08 µM): 0.311 | relative viability ([13]; first compound 0.253 µM): 0.262 | relative viability ([13]; first compound 0.8 µM): 0.293 | relative viability ([13]; first compound 2.53 µM): 0.299 | relative viability ([14]; first compound 0.08 µM): 0.525 | relative viability ([14]; first compound 0.253 µM): 0.525 | relative viability ([14]; first compound 0.8 µM): 0.465 | relative viability ([14]; first compound 2.53 µM): 0.474 | relative viability ([15]; first compound 0.08 µM): 0.403 | relative viability ([15]; first compound 0.253 µM): 0.462 | relative viability ([15]; first compound 0.8 µM): 0.556 | relative viability ([15]; first compound 2.53 µM): 0.58 | relative viability ([16]; first compound 0.08 µM): 0.441 | relative viability ([16]; first compound 0.253 µM): 0.339 | relative viability ([16]; first compound 0.8 µM): 0.473 | relative viability ([16]; first compound 2.53 µM): 0.481 | relative viability ([17]; first compound 0.08 µM): 0.521 | relative viability ([17]; first compound 0.253 µM): 0.559 | relative viability ([17]; first compound 0.8 µM): 0.533 | relative viability ([17]; first compound 2.53 µM): 0.506 | relative viability ([18]; first compound 0.08 µM): 0.91 | relative viability ([18]; first compound 0.253 µM): 0.8 | relative viability ([18]; first compound 0.8 µM): 0.793 | relative viability ([18]; first compound 2.53 µM): 0.628 | relative viability ([19]; first compound 0.08 µM): 0.484 | relative viability ([19]; first compound 0.253 µM): 0.704 | relative viability ([19]; first compound 0.8 µM): 0.593 | relative viability ([19]; first compound 2.53 µM): 0.514 | relative viability ([20]; first compound 0.08 µM): 0.603 | relative viability ([20]; first compound 0.253 µM): 0.456 | relative viability ([20]; first compound 0.8 µM): 0.603 | relative viability ([20]; first compound 2.53 µM): 0.54 | relative viability ([21]; first compound 0.08 µM): 0.53 | relative viability ([21]; first compound 0.253 µM): 0.533 | relative viability ([21]; first compound 0.8 µM): 0.557 | relative viability ([21]; first compound 2.53 µM): 0.478
